Measurements reported in patent US20240287062A1, “NAPHTHYRIDONE COMPOUNDS FOR INHIBITION OF RAF KINASES AND/OR BCR-ABL TYROSINE KINASES” (Enliven Inc., priority 2021, published 2024).

Columns and labels:
Type in all cases: biochemical
[1] = target: ABL1 (V299L) (Homo sapiens (Human), UniProt P00519, V299L); assay: Radioactivity-based ABL kinase assay; conditions: 100 μM 33P-ATP
Experimental: (§1) The following kinase assay was based on Anastassiadis et al (2011) Nat Biotech, 29:1039-1045. Briefly, ABL kinase substrate (ABLtide: EAIYAAPFAKKK; Genscript) was freshly prepared in reaction buffer (20 mM HEPES pH 7.5, 10 mM MgCl2, 1 mM EGTA, 0.02% Brij-35, 0.02 mg/ml BSA, 0.1 mM Na3VO4, 2 mM DTT, and 1% DMSO) to a final substrate concentration of 20 μM. ABL wild type and ABL mutant kinases were added to the substrate solution and mixed to the final enzyme concentrations shown in Table 3 below.
(§2) Serial dilutions of compounds were prepared in 100% DMSO Compounds or DMSO only (vehicle control) were then added to the kinase reaction mixture and incubated for 20 minutes at room temperature. 100 μM ^33P-ATP (specific activity 10 μCi/μl) was then added to the kinase reaction mixture to initiate the kinase reaction. This mixture was incubated for 2 hours at room temperature. Radioactivity was then measured by radioisotope filter-binding. Kinase activity data were expressed as the percent remaining kinase activity in test samples compared to vehicle control reactions. IC50 values and curve fits were obtained using a nonlinear regression model with a sigmoidal dose response (Prism GraphPad Software).

[2] = target: ABL1 (Y253H) (Homo sapiens (Human), UniProt P00519, Y253H); assay: Radioactivity-based ABL kinase assay; conditions: 100 μM 33P-ATP
Experimental: as §1, §2

[3] = target: ABL1 (Homo sapiens (Human), UniProt P00519); assay: Radioactivity-based ABL kinase assay; conditions: 100 μM 33P-ATP
Experimental: as §1, §2

[4] = target: ABL1 (F317I) (Homo sapiens (Human), UniProt P00519, F317I); assay: Radioactivity-based ABL kinase assay; conditions: 100 μM 33P-ATP
Experimental: as §1, §2

[5] = target: ABL1 (E255K) (Homo sapiens (Human), UniProt P00519, E255K); assay: Radioactivity-based ABL kinase assay; conditions: 100 μM 33P-ATP
Experimental: as §1, §2

[6] = target: ABL1 (Y253F) (Homo sapiens (Human), UniProt P00519, Y253F); assay: Radioactivity-based ABL kinase assay; conditions: 100 μM 33P-ATP
Experimental: as §1, §2

[7] = target: ABL1 (Q252H) (Homo sapiens (Human), UniProt P00519, Q252H); assay: Radioactivity-based ABL kinase assay; conditions: 100 μM 33P-ATP
Experimental: as §1, §2

[8] = target: ABL1 (M351T) (Homo sapiens (Human), UniProt P00519, M351T); assay: Radioactivity-based ABL kinase assay; conditions: 100 μM 33P-ATP
Experimental: as §1, §2

[9] = target: ABL1 (F317L) (Homo sapiens (Human), UniProt P00519, F317L); assay: Radioactivity-based ABL kinase assay; conditions: 100 μM 33P-ATP
Experimental: as §1, §2

[10] = target: ABL1 (E255V) (Homo sapiens (Human), UniProt P00519, E255V); assay: Radioactivity-based ABL kinase assay; conditions: 100 μM 33P-ATP
Experimental: as §1, §2

[11] = target: ABL1 (T315I) (Homo sapiens (Human), UniProt P00519, T315I); assay: Radioactivity-based ABL kinase assay; conditions: 100 μM 33P-ATP
Experimental: as §1, §2

[12] = target: ABL1 (H396P) (Homo sapiens (Human), UniProt P00519, H396P); assay: Radioactivity-based ABL kinase assay; conditions: 100 μM 33P-ATP
Experimental: as §1, §2

[13] = target: ABL1 (G250E) (Homo sapiens (Human), UniProt P00519, G250E); assay: Radioactivity-based ABL kinase assay; conditions: 100 μM 33P-ATP
Experimental: as §1, §2

[14] = target: KDR (VEGFR2) (Homo sapiens (Human), UniProt P35968); assay: Luminescence-based KDR kinase assay (Km ATP), ADP-Glo; conditions: compound at 100 nM concentration
Experimental: Kinase activity of KDR was measured using the ADP-Glo system (Promega). Compounds were diluted in DMSO at 100 μM. 20 nL of compound or DMSO only (high control, HC) were added to a 384-well plate (OptiPlate-384, PerkinElmer) using an Echo550 liquid handler (Labcyte). 15 μL of kinase solution (10 mM MgCl2, 0.01% Brij-35, 2 mM DTT, 0.05% BSA, 1 mM EGTA, 0.05% CHAPSO, 50 mM HEPES pH 7.5, and 0.665 nM KDR [Carna Biosciences]) were added to each well of the 384-well plate containing the compounds. No enzyme control wells were included (low control, LC). The plate was incubated at room temperature for 30 minutes. 5 μL of a second solution containing 10 mM MgCl2, 0.01% Brij-35, 2 mM DTT, 0.05% BSA, 1 mM EGTA, 50 mM HEPES pH 7.5, 6 μM Peptide 22 (Perkin Elmer, Cat No 760366), and 400 μM ATP were added to each well to start the kinase reaction. The plate was incubated for 90 minutes at room temperature. 20 μL of ADP-Glo reagent (Promega) were then added to each well and the plate was incubated for 40 minutes at room temperature. […] During this step, ADP was converted to ATP, a substrate for luciferase, to produce luminescence signal. Luminescence was measured on an Envision plate reader (Perkin Elmer). Luminescence signal positively correlates with kinase activity. The percent inhibition of kinase activity was calculated as follows: percent inhibition=100×(LumHC−LumSample)/(LumHC−LumLC). […]

Chain of KDR (VEGFR2) (P35968 20-1356): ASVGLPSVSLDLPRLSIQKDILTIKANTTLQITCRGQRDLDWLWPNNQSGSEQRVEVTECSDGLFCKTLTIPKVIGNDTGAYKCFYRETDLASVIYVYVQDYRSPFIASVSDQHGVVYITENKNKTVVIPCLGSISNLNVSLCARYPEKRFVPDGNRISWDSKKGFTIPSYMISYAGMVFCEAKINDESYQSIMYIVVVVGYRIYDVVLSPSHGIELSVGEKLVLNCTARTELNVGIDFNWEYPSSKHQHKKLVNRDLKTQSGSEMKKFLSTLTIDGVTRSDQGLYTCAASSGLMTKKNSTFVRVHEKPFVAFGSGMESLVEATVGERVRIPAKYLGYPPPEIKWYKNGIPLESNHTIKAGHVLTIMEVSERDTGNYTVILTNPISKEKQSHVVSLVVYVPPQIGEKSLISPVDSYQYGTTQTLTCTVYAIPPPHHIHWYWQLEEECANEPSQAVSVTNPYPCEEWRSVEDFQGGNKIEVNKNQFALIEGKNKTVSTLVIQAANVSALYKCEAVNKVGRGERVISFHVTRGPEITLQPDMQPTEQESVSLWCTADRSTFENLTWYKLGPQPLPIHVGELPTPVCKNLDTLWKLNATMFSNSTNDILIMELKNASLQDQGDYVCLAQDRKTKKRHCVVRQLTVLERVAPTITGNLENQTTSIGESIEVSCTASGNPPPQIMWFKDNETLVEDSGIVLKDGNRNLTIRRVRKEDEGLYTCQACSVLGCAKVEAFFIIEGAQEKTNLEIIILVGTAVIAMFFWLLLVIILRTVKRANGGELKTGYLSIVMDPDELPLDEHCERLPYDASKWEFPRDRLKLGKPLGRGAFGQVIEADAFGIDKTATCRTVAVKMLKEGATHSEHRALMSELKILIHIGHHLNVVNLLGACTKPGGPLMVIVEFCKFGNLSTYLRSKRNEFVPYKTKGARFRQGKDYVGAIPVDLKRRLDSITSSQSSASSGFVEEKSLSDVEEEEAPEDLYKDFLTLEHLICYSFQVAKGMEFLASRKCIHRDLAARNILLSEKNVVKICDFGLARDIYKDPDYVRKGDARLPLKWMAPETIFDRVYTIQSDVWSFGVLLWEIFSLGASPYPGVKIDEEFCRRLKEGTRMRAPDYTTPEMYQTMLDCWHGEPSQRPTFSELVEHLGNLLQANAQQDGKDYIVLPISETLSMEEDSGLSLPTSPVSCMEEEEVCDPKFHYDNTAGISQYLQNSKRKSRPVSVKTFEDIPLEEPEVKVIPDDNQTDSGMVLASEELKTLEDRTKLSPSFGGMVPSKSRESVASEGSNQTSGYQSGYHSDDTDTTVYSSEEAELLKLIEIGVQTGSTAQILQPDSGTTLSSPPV

Row | SMILES | IC50 [1] | IC50 [2] | IC50 [3] | IC50 [4] | IC50 [5] | IC50 [6] | IC50 [7] | IC50 [8] | IC50 [9] | IC50 [10] | IC50 [11] | IC50 [12] | IC50 [13] | inhibition at 0.1 µM [14]
1 | Cc1c(F)cncc1-c1cc2cnc(NC(=O)C3CC3)cc2n(C)c1=O [Compound 2, N-[3-(5-fluoro-4-methylpyridin-3-yl)-1-methyl-2-oxo-1,6-naphthyridin-7-yl]cyclopropanecarboxamide] | < 0.51 nM | 0.93 nM | 0.61 nM | 47 nM | 2 nM | < 0.51 nM | 1.2 nM | 1.5 nM | 17 nM | 0.61 nM | 4400 nM | 1.2 nM | 1.5 nM | 32%
2 | Cc1c(F)cncc1-c1cc2cnc(NC(=O)[C@@H]3C[C@@H]3F)cc2n(C)c1=O [Compound 28, (1S,2S)-2-fluoro-N-[3-(5-fluoro-4-methylpyridin-3-yl)-1-methyl-2-oxo-1,6-naphthyridin-7-yl]cyclopropane-1-carboxamide] | 0.19 nM | 3.6 nM | 1.2 nM | 114 nM | 3.4 nM | 0.53 nM | 1.7 nM | 4.5 nM | 107 nM | 1.4 nM | > 500 nM | 1.4 nM | 3.7 nM | 27%
